Test results taken from paper PMC5219024, “New acetylenic derivatives of betulin and betulone, synthesis and cytotoxic activity” (Medicinal Chemistry Research, 2016).
Converted amounts (≈) assume the structure as drawn.

Tests used:
[1] = tested on: T47D (human breast cancer); assay: Antiproliferative assay in vitro (SRB), T47D; assay type: cell-based; settings: human T47D; 96 h exposure; 1 to 100 µg/mL; Neg = negative in the concentration used; read-out: Cytotoxic activity IC50, T47D
Description: (§1) The tested cell lines were obtained from the American Type Culture Collection (Rockville, Maryland, USA) and maintained at the Cell Culture Collection of the Institute of Immunology and Experimental Therapy (Wrocław, Poland). The cells were seeded in 96-well plates (Sarstedt, USA) at a density of 10^4 cells per well in 100 µL of culture medium overnight. […] The normal mouse fibroblasts BALB3T3 was cultured in Dulbecco’s modified Eagle’s medium (Sigma-Aldrich, Chemie GmbH, Steinheim, Germany) supplemented with 2 mM glutamine (Sigma-Aldrich, Chemie GmbH, Steinheim, Germany) and 10 % fetal calf serum FBS (Sigma-Aldrich, Chemie GmbH, Steinheim, Germany). The all culture media were supplemented with streptomycin (100 µg/mL) and penicillin (100 U/mL) (both antibiotics from Polfa, Tarchomin, Poland). The cell cultures were maintained at 37 °C in humid atmosphere saturated with 5 % CO2. This technique as first was described by Skehan et al. in [1990]. The SRB assay was performed after 96 h exposure of the cultured cells to varying concentrations (ranging from 1 to 100 µg/mL) of the tested substances. The reported derivatives as well as betulin 1 were dissolved in 10 % dimethyl sulfoxide (DMSO) to concentration of 1 mg/mL, and next diluted in culture medium to reach the required concentrations. […] The cells fastened to the plastic were fixed mildly layering cold 50 % TCA (trichloroacetic acid, Aldrich-Chemie, Germany) on the top of the culture medium in each well. The plates were incubated at 4 °C for 1 h and then washed five times with tap water. The cells fixed with TCA were stained with 0.4 % sulforhodamine B (SRB, Sigma, Germany) dissolved in 1 % acetic acid (POCH, Gliwice, Poland) for 30 min. The unbound dye was removed by rinsing four times with 1 % acetic acid. The protein-bound dye was extracted with 10 mM unbuffered tris base (POCH, Gliwice, Poland) and then determined the optical density at 540 nm in a computer-interfaced, 96-well microtiter plate reader Multiscan RC photometer (Labsystems, Helsinki, Finland). The compounds in given concentration were examined in triplicates in each experiment which was repeated 3–5 times. The results of cytotoxic activity in vitro were expressed as an IC50 in µg/mL.

[2] = tested on: HL-60 (human promyelocytic leukemia); assay: Antiproliferative assay in vitro (MTT), HL-60; assay type: cell-based; settings: Homo sapiens; HL-60 cancer cell line; 96 h exposure; read-out: Cytotoxic activity IC50, HL-60
Description: (§2) The tested cell lines were obtained from the American Type Culture Collection (Rockville, Maryland, USA) and maintained at the Cell Culture Collection of the Institute of Immunology and Experimental Therapy (Wrocław, Poland). The cells were seeded in 96-well plates (Sarstedt, USA) at a density of 10^4 cells per well in 100 µL of culture medium overnight. […] The normal mouse fibroblasts BALB3T3 was cultured in Dulbecco’s modified Eagle’s medium (Sigma-Aldrich, Chemie GmbH, Steinheim, Germany) supplemented with 2 mM glutamine (Sigma-Aldrich, Chemie GmbH, Steinheim, Germany) and 10 % fetal calf serum FBS (Sigma-Aldrich, Chemie GmbH, Steinheim, Germany). The all culture media were supplemented with streptomycin (100 µg/mL) and penicillin (100 U/mL) (both antibiotics from Polfa, Tarchomin, Poland). The cell cultures were maintained at 37 °C in humid atmosphere saturated with 5 % CO2. The MTT assay was used for the cytotoxicity screening against leukemia cells growing in suspension culture. This assay was performed after 96 h of the leukemia cells to varying concentrations (ranging from 1 to 100 µg/mL) of the tested substances. The derivatives of betulin were dissolved in 10 % DMSO to concentration of 1 mg/mL, and next diluted in culture medium to reach the required concentrations. […] During the last 3–4 h of incubation 20 µl of MTT solution were added to each well (MTT: 3-(4,5-dimethylthiazol-2-yl)-2,5-diphenyl tetrazolium bromide; stock solution: 5 mg/mL). The pale yellow MTT is reduced to a navy blue formazan in the mitochondria of living cells. At the end of incubation time, 80 µL of the lysing mixture was added to each well (lysing mixture: 225 mL dimethylformamide, 67.5 g sodium dodecyl sulfate and 275 mL of distilled water). After 24 h are formed the crystals of formazan, which are insoluble in aqueous solutions. The formazan crystals had been dissolved. The optical densities were read on a Multiskan RC photometer at 570 nm wavelength. The compounds in given concentration were examined in triplicates in each experiment which was repeated 3–5 times. The results of cytotoxic activity in vitro were expressed as an IC50 in µg/mL.

[3] = tested on: SW707 (human colorectal); assay: Antiproliferative assay in vitro (SRB), SW707; assay type: cell-based; settings: human SW707, 96 h exposure, 1 to 100 µg/mL, Neg = negative in the concentration used
Description: as §1

[4] = tested on: P388 (mouse leukemia); assay: Antiproliferative assay in vitro (MTT), P388; assay type: cell-based; settings: Mus musculus; murine P388; 96 h exposure; 1 to 100 µg/mL; Neg = negative in the concentration used; read-out: Cytotoxic activity IC50, P388
Description: as §2

[5] = Antiproliferative assay in vitro (SRB), BALB3T3; assay type: cell-based, mouse; settings: mouse; murine BALB3T3 normal fibroblasts; 96 h exposure; 1 to 100 µg/mL; Neg = negative in the concentration used; read-out: Cytotoxic activity IC50, BALB3T3
Description: as §1

[6] = tested on: CCRF/CEM (human leukemia); assay: Antiproliferative assay in vitro (MTT), CCRF/CEM; assay type: cell-based; settings: human CCRF/CEM; 96 h exposure; 1 to 100 µg/mL; Neg = negative in the concentration used; read-out: Cytotoxic activity IC50, CCRF/CEM
Description: as §2

[7] = tested on: BALB3T3 normal mouse fibroblasts; assay: Antiproliferative assay in vitro (SRB), BALB3T3; assay type: cell-based; settings: murine BALB3T3 normal fibroblasts; 96 h exposure; 1 to 100 µg/mL; Neg = negative in the concentration used
Description: as §1

Row | SMILES | IC50 [1] [µg/mL] | IC50 [2] [µg/mL] | IC50 ([3]; read-out: Cytotoxic activity IC50, SW707) [µg/mL] | IC50 [4] [µg/mL] | IC50 at 96 h [5] [µg/mL] | melting point [°C] | IC50 [6] [µg/mL] | Cytotoxic activity IC50, SW707 [3] | Cytotoxic activity IC50, BALB3T3 [7]
1 | C=C(C)[C@@H]1CC[C@]2(COC(=O)C#CC)CC[C@]3(C)C(CCC4[C@@]5(C)CC[C@H](O)C(C)(C)C5CC[C@]43C)C12 (stereo partly shown) [Compound 9, 28-O-(2-Butynoyl)betulin] | 16.7 ± 5.5 (≈ 32.8 µM) | 24.5 ± 1.9 (≈ 48.2 µM) | 24.3 ± 8.8 (≈ 47.8 µM) | 2.9 ± 1.4 (≈ 5.7 µM) | 17.4 ± 1.1 (≈ 34.2 µM) | 111 to 113 | 2.1 ± 0.3 (≈ 4.13 µM) | – | –
2 | C=C(C)[C@@H]1CC[C@]2(COC(=O)OCCC)CC[C@]3(C)C(CCC4[C@@]5(C)CC[C@H](O)C(C)(C)C5CC[C@]43C)C12 (stereo partly shown) [Compound 10, 28-O-Propoxycarbonylbetulin] | – | 26.8 ± 2.5 (≈ 50.7 µM) | – | – | – | – | – | – | –
3 | C=C(C)[C@@H]1CC[C@]2(COC(=O)C#CC)CC[C@]3(C)C(CCC4[C@@]5(C)CCC(=O)C(C)(C)C5CC[C@]43C)C12 (stereo partly shown) [Compound 21, 28-O-(2-Butynoyl)betulone] | – | 29.5 ± 5.4 (≈ 58.2 µM) | – | – | – | 92 to 94 | – | – | –
4 | C#CCCOC(=O)OC[C@]12CC[C@@H](C(=C)C)C1C1CCC3[C@@]4(C)CCC(=O)C(C)(C)C4CC[C@@]3(C)[C@]1(C)CC2 (stereo partly shown) [Compound 25, 28-O-(3-Butynyloxycarbonyl)betulone] | 29.8 ± 10.7 (≈ 55.5 µM) | – | – | 3.8 ± 1.9 (≈ 7.08 µM) | – | 81 to 84 | 25.2 ± 4.6 (≈ 46.9 µM) | Neg | Neg
5 | C=C(C)[C@@H]1CC[C@]2(COC(=O)OCCC)CC[C@]3(C)C(CCC4[C@@]5(C)CCC(=O)C(C)(C)C5CC[C@]43C)C12 (stereo partly shown) [Compound 22, 28-O-Propoxycarbonylbetulone] | – | 21.4 ± 2.1 (≈ 40.6 µM) | – | – | – | 76 to 78 | – | – | –
6 | C#CCOC(=O)OC[C@]12CC[C@@H](C(=C)C)C1C1CCC3[C@@]4(C)CCC(=O)C(C)(C)C4CC[C@@]3(C)[C@]1(C)CC2 (stereo partly shown) [Compound 24, 28-O-Propargyloxycarbonylbetulone] | 23.3 ± 3.5 (≈ 44.6 µM) | 11.6 ± 4.9 (≈ 22.2 µM) | – | 30.3 ± 11.8 (≈ 58 µM) | – | 173 to 175 | 18.7 ± 6.6 (≈ 35.8 µM) | Neg | Neg
7 | C=C(C)[C@@H]1CC[C@]2(COC(=O)C#CC3CC3)CC[C@]3(C)C(CCC4[C@@]5(C)CC[C@H](O)C(C)(C)C5CC[C@]43C)C12 (stereo partly shown) [Compound 6, 28-O-(3-Cyclopropyl-2-propynoyl)betulin] | 33.6 ± 6.3 (≈ 62.8 µM) | 44.8 ± 10.9 (≈ 83.8 µM) | – | 8.4 ± 9.2 (≈ 15.7 µM) | – | 108 to 113 | 16.5 ± 8.5 (≈ 30.9 µM) | Neg | Neg
8 | C#CCOC(=O)OC[C@]12CC[C@@H](C(=C)C)C1C1CCC3[C@@]4(C)CC[C@H](O)C(C)(C)C4CC[C@@]3(C)[C@]1(C)CC2 (stereo partly shown) [Compound 12] | – | 3.7 ± 0.5 (≈ 7.05 µM) | – | – | – | – | – | – | –
9 | C=C(C)[C@@H]1CC[C@]2(COC(=O)CC)CC[C@]3(C)C(CCC4[C@@]5(C)CCC(=O)C(C)(C)C5CC[C@]43C)C12 (stereo partly shown) [Compound 15, 28-O-Propanoylbetulone] | – | 33.7 ± 5.5 (≈ 67.8 µM) | – | – | – | – | – | – | –
